The format of data set [1] is physicochemical. To be noted: room temperature; for storability: light excluded. How it is done: (§1) The semihydrate forms compact needles from water (1/2H2 O calculated 0.94%, found 1.00%). […] Its solubility in water is 0.2% at room temperature. Its solubility in 60% ethanol is much better, and is about 3% at room temperature.
For the preparation of an infusion solution, the ampoule contents are dissolved in at least 220, at most 900 ml of sterile 0.9% sodium chloride solution or 5% glucose solution by vigorous shaking for a short time, whereafter the volume is brought to 250, 500 or 1000 ml. The infusion vessels and tubes are either to be covered with aluminum foil or must consist of material which is opaque to light.
50 mg of finely pulverized (+)-bis-(trimethaphan)-nitroprusside are filled into a sterilized, brown 5 ml flask closable with a synthetic stopper. 3 ml of 60% ethanol are sealed in a solvent ampoule and sterilized. […] Immediately before use the solid substance is dissolved in the solvent and the thus-obtained stock solution is used for the preparation of the infusion solution.

Data set [2] is described as follows: Solubility of (+)-bis-(trimethaphan)-nitroprusside and its semihydrate (Example 1). Type of data set: physicochemical.
Description: as §1

Data set [3] is described as follows: Solubility of SNP, TMC, TNP and mixtures (Example 10). Conditions: for amount of solvent giving clear solution: 22° C., SNP 50 mg, TMC 250 mg; for solubility of mixtures / TNP: borderline amount of solvent: 50 + 500 mg (1 + 10). Type of data set: physicochemical. How it is done: At room temperature (22° C.) clear solutions were obtained in the following solvents from the following compounds: […]

For data set [4], the system named is blood pressure. In words: Infusion dosage required to achieve a given lowering of the blood pressure in a cat under Nembutal narcosis (Table I, FIG. 4). Type of data set: in vivo. More on the design: key to Infusion dosage required for lowering of blood pressure (symbol): *: Limit of activity and/or predominance of toxic side effects. To be noted: for Infusion dosage required for lowering of blood pressure / Infusion dosage required for lowering of blood pressure (symbol): i.v. infusion. How it is done:
This is evident, for example, from the following experiment:
The various infusion solutions listed below were infused i.v. in succession, with appropriate recovery intervals, into a male, spontaneously respiring cat weighing 3.7 kg under Nembutal narcosis, and the dosages required to achieve a given lowering of the blood pressure were determined.
For the preparation of the infusion solutions, the substances or their concentrated stock solutions were diluted with 0.9% sodium chloride solution to a uniform infusion strength of 9 mg/100 ml (90 ug/ml). All solutions were freshly prepared and infused with the exclusion of light (aluminium foil) corresponding to the dosages given below.
The values given in Table I hereinafter were determined graphically.
FIG. 4, a comparison of equieffective doses of A, B, C, D and E, is derived from the figures in Table I, and further indicates the unobvious superiority of infusion solutions having a weight ration of less than 1:10 of the salts.
On the Y-axis, the weight percent of the trimethaphan ion in trimethaphan camsylate needed to achieve the indicated level of hypotension reduction is always set at 100% for each level, indicating the infusion solution of C. The X-axis measures the weight of nitroprusside ion expressed as a weight percent of the trimethaphan ion needed; B, having no trimethaphan, is set at 0 weight percent. The percents for A, D, and E are as indicated.
The hypotenuse of the triangle indicates the hypotensive effect expected to result from using mixtures of nitroprusside and trimethaphan ions. […] The lower and more to the left the values are, the higher the degree of synergism.

Data set [5] relates to blood pressure. To be noted: TMC; cited from earlier work.
The next data set deals with patients. To be noted: infusion in patients; listed as TMC; cited from earlier work.
Data set [6] in a line: Solubility / dissolution of I and of mixtures of I and sodium thiosulphate pentahydrate. Type of data set: physicochemical. To be noted: for solubility in weaker ethanol: weaker than 50% ethanol. How it is done:
Mixtures of I and thiosulphate must not however, be heated in solution above 50° C., since otherwise the trimethaphan cation can decompose.
Therefore, the problem arose to find a physiologically acceptable solvent in which a mixture of I and thiosulphate in the weight ratio of about 1:1 to about 1:40 can dissolve to at least 5-10%, in a temperature range which for practical reasons should embrace temperatures between about 15° C. and about 35° C. Moreover, the concentrated solution should be able to dissolve without problem in the amount (250-1000 ml) of physiological sodium chloride solution or isotonic (5%) glucose solution required for final dilution.
For example, the mixture of 50 mg of I and 1000 mg of sodium thiosulphate pentahydrate dissolved

The subject of the next data set is rats. Conditions: i.v.; cited from earlier work.

The values that follow come from patent US4721707A, “Complex salt” (priority 1982, dated 1988).

“Also recorded” adds a separate entry of the source.

For the molecule “bis-(trimethaphan)-nitroprusside semihydrate”, in data set [1], the stability at storage entry is reported as “stable” and the “water loss at storage” value is reported as “does not lose water”. In data set [2] (room temperature), the “solubility in 60% ethanol” value was “about 3%” and the solubility in water was 0.2%.

With `O=C1N(Cc2ccccc2)C2C[S+]3CCCC3C2N1Cc1ccccc1` (stereo not shown) [C, trimethaphan camsylate, reference compound], the “amount of solvent giving clear solution” value in data set [3] (5% dextrose) was 10 mL; in data set [3] (40% ethanol), 10 mL; in data set [3] (60% ethanol), 2 mL; in data set [3] (water) it was 10 mL. Moreover, the “Infusion dosage required for lowering of blood pressure” value is 6.0 ug/kg · min in the data set with blood pressure [4] (-20 mm Hg, cat); 18 ug/kg · min with blood pressure [4] (-30 mm Hg, cat); 55 ug/kg · min in the data set on blood pressure [4] (-40 mm Hg, cat). The “Infusion dosage required for lowering of blood pressure (symbol)” value in the data set with blood pressure [4] (-50 mm Hg, cat) is listed as “*”; with blood pressure [4] (-55 mm Hg, cat), “*”; with blood pressure [4] (-75 mm Hg, cat), “*”. For the same molecule, the “activity compared with other test substances (in words)” value with blood pressure [4] (cat, comparison among A to E) is listed as “significantly less active”. In addition, the limit of activity in the data set on blood pressure [4] (lowering of blood pressure, cat) is -40 mm Hg. In addition, the “dosage required for the controlled lowering of blood pressure” value in the data set on blood pressure [5] is recorded as “about 30 ug/kg or more per minute”. Also, the side effects result in the data set with patients was “tachycardia, mydriasis, cycloplegia, urine retention, xerostomia and constipation; also recorded: nausea or vomiting; also recorded: allergies”.

Take “(+)-bis-/(3aS,8aR,8bR)-1,3-dibenzyldecahydro-2-oxoimidazo[4,5-c]thieno[1,2-a]thiolium/nitrosylpentacyano-ferrate”: the storability result in data set [1] was “can be stored for a very long time”. Further, the “Infusion dosage required for lowering of blood pressure” value was 1.5 ug/kg · min in the data set with blood pressure [4] (-20 mm Hg, cat); 2.3 ug/kg · min in the data set with blood pressure [4] (-30 mm Hg, cat); 3.5 ug/kg · min in the data set on blood pressure [4] (-40 mm Hg, cat); 5.8 ug/kg · min in the data set on blood pressure [4] (-50 mm Hg, cat); 7.8 ug/kg · min in the data set with blood pressure [4] (-55 mm Hg, cat); 40 ug/kg · min in the data set on blood pressure [4] (-75 mm Hg, cat). Also, the “limit of activity (in words)” value in the data set on blood pressure [4] (compared with all the other substances or mixtures) is on record as “significantly higher limit of activity than all the other substances or mixtures”. In addition, the “strength of activity (in words)” value in the data set on blood pressure [4] (slight lowering of the blood pressure (to -30 mm Hg)) is listed as “approximately comparable strengths of activity; also recorded: shows up best”. For the same molecule, the “solubility in aqueous ethanol” value in data set [2] (aqueous ethanol) is reported as “dissolves readily”. Besides, the “solubility in water, absolute ethanol and cyclohexane” value in data set [2] (water, absolute ethanol and cyclohexane) is listed as “only very slightly soluble”.

bis-(trimethaphan)-nitroprusside: in data set [1], the storability entry was “can be stored without further additives”. The “solubility of mixtures / TNP: borderline amount of solvent” value in data set [3] (5% dextrose, 125 + 500 mg (1 + 4), TNP 40 mg (highly purified product)) stood at 100 mL; in data set [3] (40% ethanol, TNP 40 mg), 25 mL; in data set [3] (60% ethanol, 125 + 500 mg (1 + 4), TNP 40 mg), 2 mL. Also, the “ethanol concentration required for concentrated stock solution” value in data set [6] (ethanol-water, room temperature (22° C.), FIG. 1) is “at least 40%”. Also, the “solubility in water (in words)” value in data set [6] (water) is on record as “poorly soluble in water”. Moreover, the “solubility in weaker ethanol” value in data set [6] was “no longer completely soluble”. Also, in the data set on blood pressure [4] (nitroprusside and trimethaphan ions in molar ratio 1:2, FIG. 4 / Table I), the synergistic activity result is reported as “maximum synergistic activity”.

Regarding `O=S([O-])([O-])=S.[Na+].[Na+]` [sodium thiosulphate, reference compound], the LD50 in the data set with rats is 2500 mg/kg. Further, the “solubility in over 40% ethanol” value in data set [6] (especially at temperatures <50° C.) was “only very limited solubility”. In data set [6], the “solubility in weaker ethanol” value was “better solubility”.
